Results published in ChEMBL document CHEMBL3507680, “University of Dundee, Gates Library screen for HepG2 cell viability”.

Test: Human HepG2 cell viability assay in 384 well format
Type: toxicity, cell-based
Design: dose 125 nL, time 70.5 hour; cytotoxicity at 70.5 h: concentration not given beside the values
Details: HepG2 cells, read-out: Inhibition

| SMILES | cytotoxicity at 70.5 h [%] |
| --- | --- |
| Cc1ccc(C(=O)N2C[C@@H]3CN(c4ncccn4)C[C@@H]3C2)cn1 | -9.68 |
| CS(=O)(=O)N1CCCCC12CCCN(Cc1nccs1)C2 (stereo not drawn) | 11.6 |
| Cc1cnc(N2CCC3(CCCCN3C)C2)nc1 (stereo not drawn) | -7.87 |
| CN(C)C(CNCc1nc(-c2ccsc2)no1)c1ccco1 (stereo not drawn) | -16.8 |
| CCCc1nc(C)cc(N2CCC3(CCC(=O)N(CCO)C3)CC2)n1 | -4.4 |
| O=C(C1CCCCC1)N1CCC2(COc3ncccc3S(=O)(=O)N2)C1 (stereo not drawn) | -4.42 |
| CN1CCN(C(=O)[C@@H]2CCO[C@@H]3CCN(c4ncccn4)C[C@@H]32)CC1 | -3.98 |
| CCn1cnnc1CNC(=O)N1CCC(CN2CCCCCC2)CC1 | -7.73 |
| Cc1nc(C(=O)N2CCCC(c3cccc(-n4ccnc4)n3)C2)co1 (stereo not drawn) | 4.94 |
| Cc1cc(NC(=O)CNC(C)(C)c2ccc3c(c2)OCCO3)no1 | 2.35 |
| CCC(C)NS(=O)(=O)c1ccc(C(=O)N(C)C2(C#N)CCC2)cc1 (stereo not drawn) | -23.6 |
| CCN1CCN(C(=O)NCc2cccnc2-n2cccn2)CC1 | 10.5 |
| O=C(CCn1cccn1)NCC(c1cccs1)N1CCOCC1 (stereo not drawn) | 25.6 |
| CCC(NC(=O)Nc1cc(F)c(OC)c(F)c1)c1noc(C)n1 (stereo not drawn) | 0.154 |
| O=C(Nc1cccc(C(F)(F)F)c1)N1CCN(CCn2ccnc2)CC1 | -10.1 |
| O=C(NCc1nncn1-c1ccccc1)C1CC1 | -1.31 |
| CS(=O)(=O)NCc1cnc2n1CCN(Cc1ccco1)CC2 | -6.2 |
| CCOc1cc(Cl)ccc1CNC(=O)N(C)CC(C)(C)O | -78.1 |
| CN1CCC2(CCN(Cc3nccs3)CC2)C1=O | -1.5 |
| CCOC[C@H]1CC[C@H]2[C@H](CCN2Cc2c(C)noc2C)O1 | -3.26 |
| Cc1cccc(C(C(=O)N2CC(Oc3ccccc3F)C2)N(C)C)c1 (stereo not drawn) | -1.02 |
| O=C(O)c1ccc(CC2CCN(S(=O)(=O)N3CCOCC3)C2)cc1 (stereo not drawn) | -5.44 |
| COc1ccc(C(NC(=O)c2cccc[n+]2[O-])C2CC2)cc1 (stereo not drawn) | -3.04 |

| SMILES | cytotoxicity at 70.5 h [%] |
| --- | --- |
| c1cnc(N2C[C@H]3CCN(CCN4CCCC4)C[C@H]3C2)cn1 | -5.43 |
| COCCn1cnnc1Cn1ccnc1-c1ccsc1 | 1.35 |
| c1cnn(CCCO[C@@H]2CC[C@H]3[C@H]2OCCN3CC2CCOCC2)c1 | -5.34 |
| CC(NC(=O)c1csnn1)c1ccc(OCC2CC2)c(F)c1 (stereo not drawn) | 14.5 |
| CCOCCCNC(=O)CN(c1cc(C)cc(C)c1)S(C)(=O)=O | -14.2 |
| Cc1noc(C)c1C(=O)N1CC[C@]2(C[C@@H](OCc3cccnc3)CO2)C1 | -9.24 |
| COCCn1c2c(ccc1=O)CC(N)CC2 (stereo not drawn) | -0.36 |
| CC(=O)NCCCC(=O)NC1(c2ccc(Cl)c(Cl)c2)CC1 | 2.93 |
| CN(C)C(=O)C1CCC2(CCN(C(=O)Nc3ccccc3)CC2)O1 (stereo not drawn) | -8 |
| O=C(CCc1nc(Cl)n[nH]1)N1C[C@@H](CN2CCCCCC2)[C@@H](CO)C1 | -4.12 |
| COCc1nc2cc(NCc3cc[nH]n3)ccc2o1 | -2.44 |
| CNc1nc(C2CCCN(C(=O)CNC(C)=O)C2)nc2c1CN(C)CC2 (stereo not drawn) | 11.4 |
| CC(C)C(C(=O)N1CCC2(CC1)CN(C)C(=O)O2)c1ccccc1 (stereo not drawn) | -8.69 |
| CC(O)CN1CCN(C(=O)c2ccc(CN(C)C)cc2)CC1 (stereo not drawn) | -0.592 |
| CC(C)CNC(=O)c1cc(C2CC2)nc2onc(C3CCNCC3)c12 | -3.04 |
| Cc1cccc(CS(=O)(=O)NCC(O)Cc2ccccc2)c1 (stereo not drawn) | 0.192 |
| Cc1ccc(Cl)c(CN2CCC(c3nccn3C(C)C)CC2)c1F | -1.48 |
| N#CC1(C(=O)N2Cc3cc(-c4cc[nH]n4)ccc3C2c2cnco2)CC1 (stereo not drawn) | 1.75 |
| CCn1ccnc1CN1CCOC(CNc2cccnn2)C1 (stereo not drawn) | -9.35 |
| Cc1ccccc1CN1CCN(C(=O)CN2CCOC2=O)CC1 | -6.85 |
| O=C(Nc1cccc(C(F)(F)F)c1)C1CC(=O)N(Cc2ccccn2)C1 (stereo not drawn) | 34.8 |
| CCc1ccc(C(C)NC(=O)CCc2nc(-c3nnc[nH]3)no2)cc1 (stereo not drawn) | -4.48 |
| O=C(CCc1ccccc1F)NS(=O)(=O)c1ccc2c(c1)OCCCO2 | -3.8 |

| SMILES | cytotoxicity at 70.5 h [%] |
| --- | --- |
| CC(C)CNC(=O)[C@H]1CCS(=O)(=O)[C@@H]2CN(CC(C)C)C[C@H]12 | -1.81 |
| Cc1csc(N2CCN(C(=O)C3(C#N)CCCCC3)CC2)n1 | -9.16 |
| CC(C)C(O)CNC(=O)Nc1cnn(Cc2ccccc2)c1 (stereo not drawn) | -1.15 |
| Cc1nc2c(cc1C(=O)O)CCN(CC1CC1)CC2 | -3.49 |
| COc1ccc(Cl)cc1C(=O)NCc1cnn(C)c1C | -0.564 |
| Cc1c(C(=O)NC2=NCCS2)cnn1-c1ccc(Br)cc1 | -15 |
| O=C(CN1CCCC1Cn1cncn1)NCC1(c2ccccc2)CC1 (stereo not drawn) | -5.75 |
| CC(C)C1CN(C(=O)c2ccc(C(N)=O)cc2)CCS1 (stereo not drawn) | -6 |
| CC(C)c1nccn1Cc1cc(C(=O)NCC(C)n2ccnc2)n[nH]1 (stereo not drawn) | -6.98 |
| CCN(CC)C1CCN(C(=O)NCc2cccc(-n3cccn3)c2)C1 (stereo not drawn) | -8.43 |
| Cc1cc(C2CCCN2CC(=O)N(CCC#N)c2ccccc2F)on1 (stereo not drawn) | -12.2 |
| CCS(=O)(=O)N1CCC2(CC1)CN(c1cccnc1)C(=O)CO2 | -5.49 |
| CCc1nc(CC(=O)NCC2(C(N)=O)CCOCC2)cs1 | -6.76 |
| CC(C)C1CC(=O)Nc2c1cnn2Cc1ccco1 (stereo not drawn) | -15.8 |
| COCCC(=O)N1CCC2(CCCN(Cc3cc(OC)ccc3F)C2)C1 (stereo not drawn) | -6.14 |
| CC(=O)NCC(=O)N1CCn2cc(CN3CCN(C)CC3)nc2C1 | -11.5 |
| O=C(c1cc(F)ccc1F)C1CCN(C(=O)c2ccc(=O)[nH]n2)CC1 | -9.24 |
| CCOC(=O)CNC(=O)Cn1c(-c2ccoc2)nc(C)c1C | 3.16 |
| c1ccc(CN2CCCC[C@H]3CN(c4ncccn4)C[C@H]32)cc1 | -6.75 |
| Cc1cnc(C(=O)N2CCCC(c3nccn3Cc3cscn3)C2)cn1 (stereo not drawn) | -3.23 |
| CC(C)c1n[nH]c(C2CN(C(=O)COc3ccc(F)cc3)CCO2)n1 (stereo not drawn) | -8.14 |
| O=C(CCc1cc2n(n1)CCCN(C(=O)c1cccnc1)C2)NC1CC1 | -2.07 |
| CCCC(O)CN1CCC(=O)N(CC2CC2)Cc2cc3c(cc21)OCO3 (stereo not drawn) | 25 |

| SMILES | cytotoxicity at 70.5 h [%] |
| --- | --- |
| CCCN1C[C@H]2CC[C@@H]1CN(Cc1ccc(Cn3cccn3)cc1)C2 | -7.61 |
| O=C1C(NCc2nnc3n2CCCC3)CCCN1c1ccccc1 (stereo not drawn) | -7.11 |
| Cc1nn(C)c(N2CCOCC2)c1CNCc1ccnn1C | -9.28 |
| Cn1cc(C(=O)NCC2CCN(C(=O)NC3CC3)CC2)cn1 | -19.1 |
| O=C(c1c[nH]cn1)N1CCC(F)(F)C2(CCN(c3cnccn3)C2)C1 (stereo not drawn) | 0.139 |
| NC(=O)CCN1CCC(C(=O)c2cc(F)ccc2F)CC1 | 15 |
| COCC(=O)NC1CCN(c2cccc(OC(F)(F)F)c2)C1=O (stereo not drawn) | -7.95 |
| Cc1nc(N)nc(C)c1CC(=O)N1CCCN(CC2CC2)C(C(C)C)C1 (stereo not drawn) | -8.22 |
| N#Cc1cc(N2CCC(CS(N)(=O)=O)CC2)c2ccccc2n1 | 14.9 |
| O=C(c1cccnc1)N1CCC(Oc2cccc(C(F)(F)F)c2)CC1 | -4.72 |
| CN(C)c1ccc(-c2nnc([C@H]3CCN(C4CCCCC4)C3)o2)cc1 | -4.32 |
| CCC(SC)C(=O)N1CCC(n2cccn2)CC1 (stereo not drawn) | -6.08 |
| COc1ccc(C2CC(=O)Nc3c2nc2n3CCCC2)cc1OC (stereo not drawn) | 8.63 |
| Cc1cc(C2CCCN2Cc2nc(-c3ccco3)no2)on1 (stereo not drawn) | -0.568 |
| CCc1cnc(N2C[C@@H]3[C@@H](C(=O)NCC(C)C)CCS(=O)(=O)[C@@H]3C2)nc1 | -5.83 |
| Cn1ccnc1-c1cnn(CC(=O)Nc2ccnn2C)c1 | -3 |
| Cc1cc2c(cc1NC(=O)NC(C)(C)C)OCO2 | -7.87 |
| CCc1nccn1C1CCCN(C(=O)c2cccc3c2OCO3)C1 (stereo not drawn) | -16 |
| O=C(CC1CCCO1)NCCc1ccccc1Br (stereo not drawn) | -2.65 |
| Cc1ccccc1-c1cncc(C2CCN(CCO)CC2)n1 | -8.45 |
| CN(C)[C@@H]1CN(Cc2ccco2)C[C@@H]2CCCO[C@@H]21 | -8.79 |
| Cn1c(C(F)(F)F)nn(CCNC(=O)CCc2ccccc2)c1=O | 22.1 |
| Cc1nnc(Nc2cccc(C3CCN(Cc4ncc[nH]4)CC3)n2)s1 | 18.8 |

| SMILES | cytotoxicity at 70.5 h [%] |
| --- | --- |
| Cc1nc(N2CCN(C)CC2)ncc1C(=O)N1CCCCCC1 | -1.12 |
| Cc1nsc(N2CCc3sccc3C2)n1 | -1.49 |
| CC(C)C1SCC(=O)Nc2c1cnn2C(C)C (stereo not drawn) | -23.1 |
| COc1cc(C(=O)N2CCC(Nc3cccnc3)CC2)ccc1C | 6.09 |
| COCCN1CCN(C(=O)NC2CC2)Cc2ccc(C)nc21 | -12.1 |
| CC(C)(C)C(=O)N1CC(=O)N(Cc2ccco2)CC(O)C1 (stereo not drawn) | -4.89 |
| O=c1[nH]nc(CNc2cncc(Br)c2)[nH]1 | 29.9 |
| CS(=O)(=O)NCc1ccc2c(c1)CCC2 | -7.69 |
| COc1cc(C)ccc1OCCC(=O)N1CCCC1Cn1cccn1 (stereo not drawn) | -3.24 |
| CCc1nc(C)c([C@H]2CN(C)C[C@@H]2C(=O)NC(C)(C)c2ccccc2)[nH]1 | -6.37 |
| Cc1nnc(-c2ccc(C(=O)Nc3ccnc(N(C)C)n3)cc2)o1 | 4.63 |
| Cc1cc(=O)c2ccccc2n1CC1CCNC1 (stereo not drawn) | -1.77 |
| CCN1CCCC(O)(CNCc2ccccn2)C1 (stereo not drawn) | -8.08 |
| CSCC(CCO)NC(=O)Nc1ccc(C)cc1C (stereo not drawn) | -14.5 |
| Cc1cccc(C(Nc2nccc(C)n2)C2CC2)n1 (stereo not drawn) | -4.46 |
| O=c1[nH]ncc(NCCOc2ccc3c(c2)OCO3)c1Cl | -8.71 |
| CS(=O)(=O)Cc1nc(CN2CC=C(c3ccccc3)CC2)cs1 | -10.5 |
| O=C(c1ccccn1)N1CCC(Cc2cnc3[nH]ccc3c2)CC1 | -6.64 |
| Cc1cccc(-c2noc([C@@H]3C[C@@H](O)CN3C3CCOCC3)n2)c1 | -3.79 |
| CC1(C2CCN(CC(N)=O)CC2)CN(Cc2ccccc2)C(=O)O1 (stereo not drawn) | -5.3 |
| CCc1nc(CN2CCOC(Cn3nc(C)cc3C)C2)no1 (stereo not drawn) | 38.2 |
